Patent publication US20220105058A1, “USE OF 3-O-SULFAMATE-16,16-DIMETHYL-D-HOMOEQUILENIN TO TREAT ONCOLOGICAL DISEASES” (priority 2018, published 2022)
Where “and” joins values, the source holds several entries; their conditions need not be identical. Equal entries are not always repeated. Entries after “also recorded” stand apart in the source; their conditions may differ.

Assay: acute oral toxicity, OECD 423 test
Conditions: for Lethal effects (dead/total): 14 days observation
Description: LD50 of the medicament was determined in FVB mice transgenic for HER-2/neu using the OECD 423 test (OECD guideline for testing of chemicals. Acute Oral Toxicity-Acute Toxic Class Method).
12 female mice were used in the experiment.
At the first step, 3 mice were given the medicament at a dose of 300 mg/kg. The study medicament was administered intragastrically (i.g.) using a metal atraumatic gavage (the procedure corresponds to the oral administration in clinical settings). […] The dosage form for administration was prepared ex tempore.
The animals were examined 2 times a day, clinically examined individually after the dose administration during the first 60 minutes, with special attention during the first 4 hours, periodically during the first 24 hours, on Day 2 and weekly for up to 14 days. Each animal was thoroughly examined in the housing cage in the observer's hands. The overall conditions of the animals were recorded, such as peculiarities in their behavior, intensity and nature of motor activity, fur and skin appearance.
The body weights of the animals were recorded using a verified high-speed electronic laboratory balance Ohaus Scout Pro (USA) with a maximum load of 2000 g and a measurement step of 0.1 g.
On Day 15, the animals were euthanized and undergone autopsy analysis with the registration of macroscopic changes. The data was collected in a special individual autopsy form.
All of the experimental animals were subject to pathomorphological examination at the end of the study. The euthanized animals were carefully examined for the external pathological changes. The chest and abdominal cavities were examined along with the macroscopic analysis of internal organs.
When assessing the acute toxicity the animals were continuously observed for the first 60 minutes, and then examined every hour for 3 hours and further once in 24 hours. On the second day, the observation was carried out twice per day. Further the observations were made once per day. […] The animal was thoroughly examined in the housing cage in the observer's hands. The overall conditions of the animals were recorded, such as peculiarities in their behavior, intensity and nature of motor activity, fur and skin appearance.

CC1(C)CC(=O)[C@@]2(C)CCc3c(ccc4cc(OS(N)(=O)=O)ccc34)[C@@H]2C1 [medicament, 3-O-sulfamate-16,16-dimethyl-D-homoequilenin]
signs of intoxication (300 mg/kg): None of the animals exhibited visual signs of intoxication
Lethal effects (dead/total) (300 mg/kg i.g.): no animals died and no animals deaths were detected and 0/6
average body weight (300 mg/kg, Day 1 (before administration)): 28.1 g
body weight of individual mice (300 mg/kg, Day 1 (before administration), in g (unit assumed)): 29.6 and 27.8 and 28.0 and 30.0 and 27.0 and 26.4
average body weight (300 mg/kg, Day 2): 28.1 g
average body weight, % from baseline (300 mg/kg, Day 2): 0%
body weight of individual mice (300 mg/kg, Day 2, in g (unit assumed)): 29.2 and 27.4 and 27.8 and 30.4 and 27.2 and 26.8
average body weight (300 mg/kg, Day 7): 29.1 g
average body weight, % from baseline (300 mg/kg, Day 7): 3%
body weight of individual mice (300 mg/kg, Day 7, in g (unit assumed)): 29.6 and 28.2 and 29.7 and 31.2 and 28.4 and 27.2
average body weight (300 mg/kg, Day 14): 29.5 g
average body weight, % from baseline (300 mg/kg, Day 14): 5%
body weight of individual mice (300 mg/kg, Day 14, in g (unit assumed)): 30.2 and 29.0 and 30.6 and 31.1 and 28.6 and 27.6
clinical signs of intoxication (2000 mg/kg): No clinical signs of intoxication were observed
Lethal effects (dead/total) (2000 mg/kg i.g. in 2 steps): 0/6
average body weight (2000 mg/kg, Day 1 (before administration)): 26.2 g
body weight of individual mice (2000 mg/kg, Day 1 (before administration), in g (unit assumed)): 28.4 and 27.5 and 25.7 and 24.2 and 24.0 and 27.2
average body weight (2000 mg/kg, Day 2): 25.8 g
average body weight, % from baseline (2000 mg/kg, Day 2): −1%
decrease in the average body weight from baseline (2000 mg/kg, Day 2): 1%
body weight of individual mice (2000 mg/kg, Day 2, in g (unit assumed)): 28.0 and 26.8 and 25.3 and 24.4 and 23.8 and 26.4
average body weight (2000 mg/kg, Day 7): 25.7 g
average body weight, % from baseline (2000 mg/kg, Day 7): −2%
decrease in the average body weight from baseline (2000 mg/kg, Day 7): 2%
body weight of individual mice (2000 mg/kg, Day 7, in g (unit assumed)): 26.8 and 24.9 and 25.0 and 25.9 and 25.4 and 26.3
average body weight (2000 mg/kg, Day 14): 27 g
average body weight, % from baseline (2000 mg/kg, Day 14): 3%
body weight of individual mice (2000 mg/kg, Day 14): 26.9 (2×) and 26.0 and 26.6 and 28.7 and 27.0
macroscopic examination of internal organs at autopsy (Day 15): did not reveal any pathological changes; also recorded: did not reveal any abnormalities
hazard class / category (mouse, in vivo): 5th or non-classified category and 4th hazard class and 5th or unclassified category
toxicity (summary statement): absence of toxicity
